Experimental data as given in US12679839B2, “Cyclin-dependent kinase 7 (CDK7) non-covalent inhibitors” (JANSSEN PHARMACEUTICA NV, priority 2020, dated 2026).

Columns and labels:
[1] = biological target: T1, CDK7/Cyclin H/MAT-1 complex (Homo sapiens, UniProt P50613); experiment: Flint assay, end-point fluorescence (5 nM CDK7/Cyclin H/MAT-1 complex); format: biochemical; conditions: for IC50: read-out: CDK7 (5 nM) pIC50 (converted)
T1 construct: Human CDK7 (amino acids 1-346); His6 (N); TEV protease cleavage site (N); made in house; host or cells: baculovirus-SF9 insect cells
T1 sequence (P50613 whole entry, the tested form may be a part): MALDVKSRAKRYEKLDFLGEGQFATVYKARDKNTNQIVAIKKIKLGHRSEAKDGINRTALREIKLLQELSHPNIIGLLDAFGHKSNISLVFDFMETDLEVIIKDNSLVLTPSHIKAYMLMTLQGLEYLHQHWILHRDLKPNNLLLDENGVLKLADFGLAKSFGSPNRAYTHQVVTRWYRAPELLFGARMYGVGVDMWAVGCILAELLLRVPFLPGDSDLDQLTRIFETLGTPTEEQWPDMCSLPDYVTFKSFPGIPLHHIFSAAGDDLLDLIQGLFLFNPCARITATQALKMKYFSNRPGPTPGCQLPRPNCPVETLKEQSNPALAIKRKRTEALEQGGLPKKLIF
T1 sequence (P51946 whole entry partner, the tested form may be a part): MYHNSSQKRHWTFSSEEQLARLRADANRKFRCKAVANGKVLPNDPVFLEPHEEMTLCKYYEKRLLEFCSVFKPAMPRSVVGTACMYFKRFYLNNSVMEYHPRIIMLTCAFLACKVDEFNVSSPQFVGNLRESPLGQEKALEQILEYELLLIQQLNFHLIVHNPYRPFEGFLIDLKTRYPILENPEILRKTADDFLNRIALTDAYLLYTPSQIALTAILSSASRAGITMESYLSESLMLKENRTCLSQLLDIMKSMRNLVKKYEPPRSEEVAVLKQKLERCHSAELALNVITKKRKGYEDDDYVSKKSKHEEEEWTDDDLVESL
T1 sequence (P51948 whole entry partner, the tested form may be a part): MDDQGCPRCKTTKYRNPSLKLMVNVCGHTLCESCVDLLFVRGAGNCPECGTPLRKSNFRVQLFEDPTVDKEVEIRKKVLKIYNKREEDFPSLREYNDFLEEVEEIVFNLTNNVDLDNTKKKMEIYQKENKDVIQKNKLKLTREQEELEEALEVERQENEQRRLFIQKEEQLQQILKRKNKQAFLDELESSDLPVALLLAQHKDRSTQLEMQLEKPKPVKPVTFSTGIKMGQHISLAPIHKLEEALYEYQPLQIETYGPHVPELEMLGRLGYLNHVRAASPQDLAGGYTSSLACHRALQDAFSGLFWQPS
Summary of the method: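 Trimeric complex of His6-TEV-tagged human CDK7 (1-346), MAT1 (1-309) and cyclin H (1-323), co-expressed in Sf9 cells, at 5 nM final, with substrates and coupling reagents as in the absorbance assay; 24 h reaction. End-point NADH fluorescence decrease (ex 340/em 440 nm); % inhibition versus no-inhibitor and full-inhibition controls, IC50 from four-parameter Hill fit.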

[2] = biological target: T1, CDK7/Cyclin H/MAT-1 complex; experiment: Absorbance kinetic assay (20 nM CDK7/Cyclin H/MAT-1 complex); format: biochemical; conditions: for IC50: read-out: CDK7 (20 nM) pIC50 (converted)
Summary of the method: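 Trimeric complex (His6-TEV CDK7 1-346, MAT1 1-309, cyclin H 1-323) from Sf9 cells, at 20 nM, phosphorylating RNA Pol II-derived CDK7/9-tide; ADP coupled via PK/LDH to NADH depletion read at 340 nm every 2 min for 8 h. Steady-state slopes gave % inhibition; IC50 from 11-point Hill fit.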

Row | SMILES | IC50 [1] [nM] | IC50 [2] [nM] | CDK7 (5 nM) pIC50 [1] | CDK7 (20 nM) pIC50 [2]
1 | C[C@@H]1Cc2cnc(N[C@H]3CCOC4(CCC4)C3)nc2CN1C(=O)[C@H]1CCN(C)C[C@@H]1c1ccccc1 (relative stereo) [Compound 9] | 6.17 | < 9.77 |  | 
2 | CN1CC[C@H](C(=O)N2Cc3nc(NC4CCOCC4)ncc3[C@@H]3C[C@@H]32)[C@@H](c2ccccc2)C1 [Compound 199] |  |  | 8.27 | >8.01
3 | C[C@H](Nc1ncc2c(n1)CN(C(=O)[C@H]1CCN(C)C[C@@H]1c1ccccc1)[C@H](C)C2)c1ccccn1 [Compound 20] |  |  | 8.19 | 8.01
4 | C[C@@H]1Cc2cnc(NC3CCN(S(=O)(=O)N(C)C)CC3)nc2CN1C(=O)N1CCN(C)C[C@@H]1c1ccccc1 [Compound 211] |  |  | 7.88 | >7.7
5 | C[C@@H]1Cc2cnc(Nc3cnn(CC(C)(C)O)c3)nc2CN1C(=O)[C@H]1CCN(C)C[C@@H]1c1ccccc1 [Compound 74] |  |  | 8.0 | 7.72
6 | C[C@@H]1Cc2cnc(NCc3cc[nH]n3)nc2CN1C(=O)[C@H]1CCN(C)C[C@@H]1c1ccccc1 [Compound 51] | 8.32 | 51.3 |  | 
7 | C[C@@H]1Cc2cnc(N[C@H](CO)c3ccccc3)nc2CN1C(=O)[C@H]1CCN(C)C[C@@H]1c1ccccc1 [Compound 72] |  |  | 8.22 | 8.01
8 | C[C@@H]1Cc2cnc(N[C@H](C)c3ccccc3)nc2CN1C(=O)[C@H]1CCN(C)C[C@@H]1c1ccccc1 [Compound 22] |  |  | 8.19 | 8.01
9 | C[C@H]1Cc2cnc(NC3CCOCC3)cc2CN1C(=O)[C@H]1CCN(C)C[C@@H]1c1ccccc1 (single isomer, unassigned) [Compound 171a] | 5.75 | 9.77 |  | 
10 | C[C@@H]1Cc2cnc(N[C@H]3CC[C@H](O)CC3)nc2CN1C(=O)[C@H]1CCN(C)C[C@@H]1c1ccccc1 [Compound 12] |  |  | 8.49 | >8.01
11 | CO[C@H]1CC[C@H](Nc2ncc3c(n2)CN(C(=O)[C@H]2CCN(C)C[C@@H]2c2ccccc2)[C@H]2C[C@@H]32)CC1 [Compound 201] |  |  | 8.16 | 7.48
12 | C[C@@H]1Cc2cnc(Nc3ccnn3C)nc2CN1C(=O)[C@H]1CCN(C)C[C@@H]1c1ccccc1 [Compound 79] |  |  | 7.78 | 7.37
13 | Cc1cc(Nc2ncc3c(n2)CN(C(=O)[C@H]2CCN(C)C[C@@H]2c2ccccc2)[C@H](C)C3)ccn1 [Compound 78] |  |  | 8.37 | 7.93
14 | CO[C@H]1CC[C@H](Nc2ncc3c(n2)CN(C(=O)[C@H]2CCN(C)C[C@@H]2c2ccccc2)C2(CC2)C3)CC1 [Compound 192] |  |  | 6.84 | 6.80
15 | CC(C)N1CCN(C(=O)N2Cc3nc(NC4CCOCC4)ncc3C[C@H]2C)[C@@H](c2ccccc2)C1 [Compound 206] |  |  | 8.19 | 7.79
16 | CN1CC[C@H](C(=O)N2Cc3nc(Nc4cnn(C)c4)ncc3[C@@H]3C[C@@H]32)[C@@H](c2ccccc2)C1 [Compound 200] |  |  | 7.77 | 7.46
17 | CC(C)N1CC[C@H](C(=O)N2Cc3nc(NC4CCOCC4)ncc3C[C@H]2C)[C@@H](c2cccc(Cl)c2)C1 (single isomer, unassigned) [Compound 160] |  |  | 8.58 | 6.96
18 | C[C@@H]1Cc2cnc(NCc3ccn(C)n3)nc2CN1C(=O)N1CCN(C)C[C@@H]1c1ccccc1 [Compound 213] |  |  | 6.9 | 6.8
19 | CC(C)n1ccc(CNc2ncc3c(n2)CN(C(=O)[C@H]2CCN(C)C[C@@H]2c2ccccc2)[C@H](C)C3)n1 [Compound 66] |  |  | 8.56 | >8.01
20 | C[C@@H]1Cc2cnc(NCc3ccn(C)n3)nc2CN1C(=O)[C@@H]1CCN(C)C[C@H]1c1cccc(OC(F)(F)F)c1 (relative stereo) [Compound 127] | 75.9 | 234 |  | 
21 | C[C@@H]1Cc2cnc(NC[C@H]3CCOC3)nc2CN1C(=O)[C@H]1CCN(C)C[C@@H]1c1ccccc1 [Compound 53] |  |  | 7.99 | 7.39

Row | SMILES | IC50 [1] [nM] | IC50 [2] [nM] | CDK7 (5 nM) pIC50 [1] | CDK7 (20 nM) pIC50 [2]
22 | C[C@H]1Cc2cnc(NCc3ccn(C)n3)cc2CN1C(=O)[C@H]1CCN(C)C[C@@H]1c1ccccc1 (relative stereo) [Compound 174] | 2.63 | 11.2 |  | 
23 | C[C@@H]1Cc2cnc(NCc3ccn(C)c3)nc2CN1C(=O)[C@H]1CCN(C)C[C@@H]1c1ccccc1 [Compound 60] | 3.55 | < 9.77 |  | 
24 | CN1CC[C@H](C(=O)N2Cc3nc(NC4CCOCC4)ncc3C(C)(C)C2)[C@@H](c2ccccc2)C1 [Compound 193] |  |  | 7.05 | 6.75
25 | CCn1ccc(CNc2ncc3c(n2)CN(C(=O)[C@H]2CCN(C)C[C@@H]2c2ccccc2)[C@H](C)C3)n1 [Compound 58] |  |  | 8.63 | >8.01
26 | C[C@H]1Cc2cnc(NC3CCOCC3)nc2CN1C(=O)N1CCN(C)C[C@H]1c1cccc(F)c1 (relative stereo) [Compound 212] | 4.79 | 13.2 |  | 
27 | C[C@@H]1Cc2cnc(NC3Cc4ccccc4C3)nc2CN1C(=O)[C@H]1CCN(C)C[C@@H]1c1ccccc1 [Compound 29] |  |  | 8.55 | 8.01
28 | C[C@@H]1Cc2cnc(NC3CCN(S(C)(=O)=O)CC3)nc2CN1C(=O)N1CCN(C)C[C@@H]1c1ccccc1 [Compound 209] |  |  | 8.48 | 7.77
29 | [2H]C([2H])(Nc1ncc2c(n1)CN(C(=O)[C@H]1CCN(C)C[C@@H]1c1ccccc1)[C@H](C)C2)c1ccccc1 [Compound 70] | 1.78 | < 9.77 |  | 
30 | C[C@@H]1Cc2cnc(NC3CCC(OC(F)F)CC3)nc2CN1C(=O)[C@H]1CCN(C)C[C@@H]1c1ccccc1 (stereo partly shown) [Compound 69] |  |  | 8.57 | >8.01
31 | C[C@@H]1Cc2cnc(NCc3ccccc3)nc2CN1C(=O)[C@H]1CCN(CC2COC2)C[C@@H]1c1ccccc1 (single isomer, unassigned) [Compound 155] |  |  | 8.2 | >8.01
32 | C[C@@H]1Cc2cnc(NC3CCC(OCC4CC4)CC3)nc2CN1C(=O)[C@H]1CCN(C)C[C@@H]1c1ccccc1 (stereo partly shown) [Compound 3] |  |  | 8.3 | >8.01
33 | Cc1cc(CNc2ncc3c(n2)CN(C(=O)[C@H]2CCN(C)C[C@@H]2c2ccccc2)[C@H](C)C3)nn1C [Compound 65] |  |  | 7.33 | 7.58
34 | Cc1cccc([C@H]2CN(C)CC[C@@H]2C(=O)N2Cc3nc(Nc4cnn(C)c4)ncc3C[C@H]2C)c1 (relative stereo) [Compound 126] | 3.72 | 15.5 |  | 
35 | Cc1ccc([C@@H]2CN(C)CC[C@H]2C(=O)N2Cc3nc(NC4CCOCC4)ncc3C[C@H]2C)cn1 (relative stereo) [Compound 108] | 19.5 | 105 |  | 
36 | C[C@H](Nc1ncc2c(n1)CN(C(=O)[C@H]1CCN(C)C[C@@H]1c1ccccc1)[C@H](C)C2)c1ccn(C)n1 (single isomer, unassigned) [Compound 55] | 38.9 | 141 |  | 
37 | CO[C@H]1CC[C@H](Nc2ncc3c(n2)CN(C(=O)[C@H]2CCN(C)C[C@@H]2c2ccc(C)nc2)[C@H](C)C3)CC1 (relative stereo) [Compound 110] | 12.9 | < 9.77 |  | 
38 | C[C@@H]1Cc2cnc(N[C@H](C)c3ccn(C)n3)nc2CN1C(=O)[C@H]1CCN(C)C[C@@H]1c1ccccc1 (single isomer, unassigned) [Compound 54] | 5.13 | 12.3 |  | 
39 | C[C@@H]1Cc2cnc(NCc3ccccc3)nc2CN1C(=O)[C@H]1CCN(C)C[C@@H]1c1ccccc1 [Compound 43] |  |  | 8.11 | 8.01
40 | C[C@@H]1Cc2cnc(NCC3CCS(=O)(=O)C3)nc2CN1C(=O)[C@H]1CCN(C)C[C@@H]1c1ccccc1 (stereo partly shown) [Compound 49] |  |  | 7.2 | 6.62
41 | CO[C@H]1CC[C@H](Nc2cc3c(cn2)C[C@H](C)N(C(=O)[C@@H]2CCN(C)C[C@H]2c2cccc(C)c2)C3)CC1 [Compound 177a] | 12.3 | 28.8 |  | 
